Data taken from patent US20250206763A1, “ENPP1 INHIBITOR” (SHANGHAI QILU PHARMACEUTICAL RESEARCH AND DEVELOPMENT …, priority 2022, published 2025).

Biological target: T1, human ENPP1 (Homo sapiens, UniProt P22413)
T1 construct: purchased Biovendor AP-18-081; host or cells: HEK293
T1 sequence (P22413 1-925): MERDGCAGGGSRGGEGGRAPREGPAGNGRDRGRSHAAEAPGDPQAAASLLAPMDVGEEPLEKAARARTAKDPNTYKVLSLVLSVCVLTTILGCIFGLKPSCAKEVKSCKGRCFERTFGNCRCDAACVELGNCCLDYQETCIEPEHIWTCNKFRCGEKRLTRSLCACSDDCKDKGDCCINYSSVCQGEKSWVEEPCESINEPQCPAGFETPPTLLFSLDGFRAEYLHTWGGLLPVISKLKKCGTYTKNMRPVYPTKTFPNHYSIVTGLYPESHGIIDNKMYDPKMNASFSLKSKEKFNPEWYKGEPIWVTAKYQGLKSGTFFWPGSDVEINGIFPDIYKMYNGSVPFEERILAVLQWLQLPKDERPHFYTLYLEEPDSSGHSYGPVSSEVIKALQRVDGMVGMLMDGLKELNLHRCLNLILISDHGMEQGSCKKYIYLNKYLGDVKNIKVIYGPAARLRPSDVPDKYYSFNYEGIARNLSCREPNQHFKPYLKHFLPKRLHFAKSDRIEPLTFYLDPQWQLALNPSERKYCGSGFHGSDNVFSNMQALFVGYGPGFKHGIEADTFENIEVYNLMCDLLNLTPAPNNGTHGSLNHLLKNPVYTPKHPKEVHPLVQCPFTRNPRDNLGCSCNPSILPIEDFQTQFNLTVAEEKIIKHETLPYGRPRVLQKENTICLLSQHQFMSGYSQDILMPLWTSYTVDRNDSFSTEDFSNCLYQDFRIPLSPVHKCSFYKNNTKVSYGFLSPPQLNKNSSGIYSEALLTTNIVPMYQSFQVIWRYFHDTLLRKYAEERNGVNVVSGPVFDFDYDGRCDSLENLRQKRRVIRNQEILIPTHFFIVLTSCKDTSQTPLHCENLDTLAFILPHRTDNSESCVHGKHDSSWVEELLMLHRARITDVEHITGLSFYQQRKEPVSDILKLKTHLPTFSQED
Assay: In vitro enzyme activity assay: human ENPP1 enzymatic assay (cGAMP), AMP-Glo
Format: biochemical
Settings: substrate cGAMP, AMP-Glo detection
Procedure: AMP-Glo Assay Kit (PROMEGA, V5012), ENPP-1-IN-1 (MCE, HY-129490), white opaque 384-well plate (Perkin Elmer, 6008289), Mammalian (non-canonical) CDN, cyclic[g(2′,5′)pA(3′,5′)p](referred to as cGAMP hereinafter, Invivogen, tlrl-nacga23-5), ENPP1 Protein Human HEK293 (Biovendor, AP-18-081).
• 1) Preparing 1× reaction buffer (Tris buffer), 1× enzyme buffer, and 1× substrate buffer; • 2) diluting the compounds using Echo550 and supplementing with DMSO; • 3) pre-loading 2.5 μL of enzyme solution on a reaction plate (adding 2.5 μL of buffer instead as negative control) and incubating it at room temperature; • 4) adding 2.5 μL of substrate solution to the system and incubating it at room temperature; • 5) adding 5 μL of AMP-Glo solution that has been allowed to cooled down to room temperature, centrifuging and reacting at room temperature, • 6) adding 10 μL of AMP Detection solution at room temperature, centrifuging and reacting at room temperature; and • 7) reading the plate using EnVision.

IC50 | Compound
< 10 nM | CCn1c(=O)n(Cc2ccc(S(C)(=N)=O)cc2)c2c3ccc4c(c3ncc21)OCO4 (centres unmarked) [Compound 45]
< 10 nM | O=c1[nH]c2cnc3c4c(ccc3c2n1Cc1ccc(P(=O)(O)O)c(OCc2ccccc2)c1)OCO4 [Compound 61]
< 10 nM | NS(=O)(=O)c1ccc(Cn2c(=O)[nH]c3cnc4c5c(ccc4c32)OCO5)c(F)c1F [Compound 38]
10 to 50 nM | O=c1[nH]c2cnc3c4c(ccc3c2n1Cc1ccc(P(=O)(O)O)c2ccccc12)OCO4 [Compound 8]
< 10 nM | Cn1c(=O)n(Cc2ccc(S(C)(=N)=O)cc2)c2c3ccc4c(c3ncc21)OCO4 (centres unmarked) [Compound 44]
< 10 nM | O=c1[nH]c2cnc3c4c(ccc3c2n1Cc1ccc(P(=O)(O)O)c(Br)c1)OCO4 [Compound 16]
< 10 nM | NS(=O)(=O)c1ccc(Cn2c(=O)[nH]c3cnc4c5c(ccc4c32)OCO5)cc1 [Compound 36]
< 10 nM | COc1cc(Cn2c(=O)[nH]c3cnc4c5c(ccc4c32)OCO5)ccc1P(=O)(O)O [Compound 49]
< 10 nM | O=c1[nH]c2cnc3c4c(ccc3c2n1Cc1ccc(P(=O)(O)O)cc1F)OCO4 [Compound 4, (3-fluoro-4-((7-oxo-6,7-dihydro-8H-[1,3]dioxolo[4,5-h]imidazo[4,5-c]quinolin-8-yl)methyl)phenyl)phosphonic acid]
< 10 nM | C[S@](=N)(=O)c1ccc(Cn2c(=O)[nH]c3cnc4c5c(ccc4c32)OCO5)cc1 (single isomer, unassigned) [Compound 43-P2]
< 10 nM | NS(=O)(=O)c1ccc(Cn2c(=O)[nH]c3cnc4c5c(ccc4c32)OCO5)nc1 [Compound 40]
< 10 nM | O=c1[nH]c2cnc3c4c(ccc3c2n1Cc1ccc(P(=O)(O)O)c(Cl)c1)OCO4 [Compound 15]
< 10 nM | NS(=O)(=O)c1cnc(Cn2c(=O)[nH]c3cnc4c5c(ccc4c32)OCO5)c(F)c1 [Compound 63]
< 10 nM | O=c1[nH]c2cnc3c4c(ccc3c2n1Cc1ccc(P(=O)(O)O)c(F)c1F)OCO4 [Compound 9]
< 10 nM | O=c1[nH]c2cnc3c4c(ccc3c2n1Cc1cc(F)c(P(=O)(O)O)cc1Cl)OCO4 [Compound 13]
< 10 nM | NS(=O)(=O)c1ccc(Cn2c(=O)[nH]c3cnc4c5c(ccc4c32)OCO5)cc1F [Compound 37]
< 10 nM | NS(=O)(=O)c1cc(F)c(Cn2c(=O)[nH]c3cnc4c5c(ccc4c32)OCO5)c(F)c1 [Compound 35]
< 10 nM | O=c1[nH]c2cnc3c4c(ccc3c2n1Cc1ccc(B(O)O)cc1)OCO4 [Compound 48]
< 10 nM | CS(=N)(=O)c1ccc(Cn2c(=O)[nH]c3cnc4c5c(ccc4c32)OCO5)cc1F (centres unmarked) [Compound 42]
10 to 50 nM | C[S@@](=N)(=O)c1ccc(Cn2c(=O)[nH]c3cnc4c5c(ccc4c32)OCO5)cc1 (single isomer, unassigned) [Compound 43-P1]

Second part, the compound before the results:

Compound | IC50
O=c1n(Cc2ccc(P(=O)(O)O)c(F)c2)c2c3ccc4c(c3ncc2n1C1CC1)OCO4 [Compound 11] | < 10 nM
O=c1[nH]c2cnc3c4c(ccc3c2n1Cc1c(F)cc(P(=O)(O)O)c(F)c1F)OCO4 [Compound 12] | < 10 nM
O=c1n(CCC(F)(F)F)c2cnc3c4c(ccc3c2n1Cc1ccc(P(=O)(O)O)c(F)c1)OCO4 [Compound 24] | < 10 nM
CS(=O)(=O)CCn1c(=O)n(Cc2ccc(P(=O)(O)O)c(F)c2)c2c3ccc4c(c3ncc21)OCO4 [Compound 31] | < 10 nM
COc1cc2c(ncc3[nH]c(=O)n(Cc4ccc(P(=O)(O)O)c(F)c4)c32)c2c1OCO2 [Compound 55] | < 10 nM
Cn1c(=O)n(Cc2c(F)cc(B(O)O)cc2F)c2c3ccc4c(c3ncc21)OCO4 [Compound 47] | < 10 nM
O=c1n(CC(F)F)c2cnc3c4c(ccc3c2n1Cc1ccc(P(=O)(O)O)c(F)c1)OCO4 [Compound 7] | < 10 nM
O=c1n(Cc2ccc(P(=O)(O)O)c(F)c2)c2c3ccc4c(c3ncc2n1C(F)F)OCO4 [Compound 51] | < 10 nM
CCn1c(=O)n(Cc2c(F)cc(S(N)(=O)=O)cc2F)c2c3ccc4c(c3ncc21)OCO4 [Compound 41] | < 10 nM
Cc1cc(P(=O)(O)O)c(F)cc1Cn1c(=O)[nH]c2cnc3c4c(ccc3c21)OCO4 [Compound 14] | < 10 nM
Cc1nc2cnc3c4c(ccc3c2n1Cc1ccc(P(=O)(O)O)c(F)c1)OCO4 [Compound 54, (2-fluoro-4-((7-methyl-8H-[1,3]dioxolo[4,5-h]imidazo[4,4-c]quinolin-8-yl)methyl)phenyl)phosphonic acid] | < 10 nM
CC(C)Cn1c(=O)n(Cc2ccc(P(=O)(O)O)c(F)c2)c2c3ccc4c(c3ncc21)OCO4 [Compound 18] | < 10 nM
CC(C)(C)Cn1c(=O)n(Cc2ccc(P(=O)(O)O)c(F)c2)c2c3ccc4c(c3ncc21)OCO4 [Compound 22] | < 10 nM
Cn1c(=O)n(Cc2ccc(P(=O)(O)O)c(F)c2)c2c3cn[nH]c3ncc21 [Compound 60] | < 10 nM
O=c1n(CC(F)(F)F)c2cnc3c4c(ccc3c2n1Cc1ccc(P(=O)(O)O)c(F)c1)OCO4 [Compound 23] | < 10 nM
O=c1n(CCCF)c2cnc3c4c(ccc3c2n1Cc1ccc(P(=O)(O)O)c(F)c1)OCO4 [Compound 26] | < 10 nM
CCn1c(=O)n(Cc2ccc(P(=O)(O)O)c(F)c2)c2c3ccc4c(c3ncc21)OCO4 [Compound 6, (4-((6-ethyl-7-oxo-6,7-dihydro-8H-[1,3]dioxolo[4,5-h]imidazo[4,5-c]quinolin-8-yl)methyl)-2-fluorophenyl)phosphonic acid] | < 10 nM

Compound | IC50
O=c1n(CC2CCC2)c2cnc3c4c(ccc3c2n1Cc1ccc(P(=O)(O)O)c(F)c1)OCO4 [Compound 19] | < 10 nM
CN(C)CCCn1c(=O)n(Cc2ccc(P(=O)(O)O)c(F)c2)c2c3ccc4c(c3ncc21)OCO4 [Compound 34] | < 10 nM
O=c1n(Cc2ccc(P(=O)(O)O)c(F)c2)c2c3ccc4c(c3ncc2n1-c1ccccc1)OCO4 [Compound 52] | < 10 nM
O=c1n(Cc2ccc(P(=O)(O)O)c(F)c2)c2c3ccc4c(c3ncc2n1C1CCOCC1)OCO4 [Compound 28] | < 10 nM
O=c1[nH]c2cnc3c4c(ccc3c2n1Cc1c(F)cc(B(O)O)cc1F)OCO4 [Compound 46] | < 10 nM
O=c1n(CCCN2CCOCC2)c2cnc3c4c(ccc3c2n1Cc1ccc(P(=O)(O)O)c(F)c1)OCO4 [Compound 32] | < 10 nM
O=c1n(CC2CCCC2)c2cnc3c4c(ccc3c2n1Cc1ccc(P(=O)(O)O)c(F)c1)OCO4 [Compound 20] | < 10 nM
CC(C)CCn1c(=O)n(Cc2ccc(P(=O)(O)O)c(F)c2)c2c3ccc4c(c3ncc21)OCO4 [Compound 30] | < 10 nM
O=c1n(CCCOC2CCOCC2)c2cnc3c4c(ccc3c2n1Cc1ccc(P(=O)(O)O)c(F)c1)OCO4 [Compound 29] | < 10 nM
O=c1[nH]c2cnc3c4c(ccc3c2n1Cc1c(F)cc(P(=O)(O)O)cc1F)OCO4 [Compound 2, (3,5-difluoro-4-((7-oxo-6,7-dihydro-8H-[1,3]dioxolo[4,5-h]imidazo[4,5-c]quinolin-8-yl)methyl)phenyl)phosphonic acid] | < 10 nM
Cn1c(=O)n(Cc2ccc(P(=O)(O)O)c(F)c2)c2c3ccc4c(c3ncc21)OCO4 [Compound 3, (2-fluoro-4-((6-methyl-7-oxo-6,7-dihydro-8H-[1,3]dioxolo[4,5-h]imidazo[4,5-c]quinolin-8-yl)methyl)phenyl)phosphonic acid] | < 10 nM
CC(c1ccc(P(=O)(O)O)c(F)c1)n1c(=O)[nH]c2cnc3c4c(ccc3c21)OCO4 (centres unmarked) [Compound 5-P1] | < 10 nM
O=c1n(Cc2ccc(P(=O)(O)O)c(F)c2)c2c3ccc4c(c3ncc2n1C1CCCC1)OCO4 [Compound 27] | < 10 nM
CC(C)n1c(=O)n(Cc2ccc(P(=O)(O)O)c(F)c2)c2c3ccc4c(c3ncc21)OCO4 [Compound 10] | < 10 nM
O=c1n(CC2CCC(F)(F)CC2)c2cnc3c4c(ccc3c2n1Cc1ccc(P(=O)(O)O)c(F)c1)OCO4 [Compound 21] | < 10 nM
O=c1n(CCC2CCOCC2)c2cnc3c4c(ccc3c2n1Cc1ccc(P(=O)(O)O)c(F)c1)OCO4 [Compound 25] | < 10 nM
